Experimental findings from PubChem BioAssay AID330 (DTP/NCI, 2004) are described below.

In the test the test system is P388 leukemia ip, CD2F1 mice, survival T/C. Kind of test: NCI In Vivo Anticancer Drug Screen. Data for tumor model P388 Leukemia (intraperitoneal) in CD2F1 (CDF1) mice. To be noted: endpoint: median survival time, higher = longer survival. The method in brief: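 Mice carrying the transplanted tumor received test compound or vehicle. Survival was recorded in each group, and the value is the treated-group measurement divided by that of the vehicle-treated control group.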

The mark [1] stands for this setting: dose: 100.0 mg/kg/injection, schedule: Q04DX003 (ip), vehicle: saline.
Setting [2] is: dose: 200.0 mg/kg/injection, schedule: Q04DX003 (ip), vehicle: saline.
The mark [3] stands for this setting: dose: 60.0 mg/kg/injection, schedule: Q01DX005 (ip), vehicle: Klucel (hydroxypropylcellulose) (HPC).
[4] abbreviates: dose: 120.0 mg/kg/injection, schedule: Q01DX005 (ip), vehicle: Klucel (hydroxypropylcellulose) (HPC).
Setting [5] is: dose: 240.0 mg/kg/injection, schedule: Q01DX005 (ip), vehicle: Klucel (hydroxypropylcellulose) (HPC).

Several values for one entry are separate records, joined by “and”; a condition that tells them apart may be missing. Equal values may be shown once. Toxic doses and inconclusive results are not listed.

For `C/C(N)=N/OCc1ccccc1`, the T/C was 98 % of control (dose: 50.0 mg/kg/injection, schedule: Q01DX005 (ip), vehicle: Klucel + Tween-80); 92 % of control (dose: 50.0 mg/kg/injection, schedule: Q01DX005 (ip), vehicle: saline); 102 % of control (dose: 100.0 mg/kg/injection, schedule: Q01DX005 (ip), vehicle: Klucel + Tween-80); 107 % of control (dose: 100.0 mg/kg/injection, schedule: Q01DX005 (ip), vehicle: saline); 102 % of control (dose: 200.0 mg/kg/injection, schedule: Q01DX005 (ip), vehicle: Klucel + Tween-80); 102 % of control (dose: 200.0 mg/kg/injection, schedule: Q01DX005 (ip), vehicle: saline).

As for `CC1(C=O)CCCC2(C)[C@@H]1CCC13CC(CC[C@H]12)C(C(=O)O)C3` (stereo partly drawn), the T/C was 86 % of control (dose: 3.25 mg/kg/injection, schedule: Q01DX005 (ip), vehicle: Klucel (hydroxypropylcellulose) (HPC)); 90 % of control (dose: 6.5 mg/kg/injection, schedule: Q01DX005 (ip), vehicle: Klucel (hydroxypropylcellulose) (HPC)); 87 % of control (dose: 13.0 mg/kg/injection, schedule: Q01DX005 (ip), vehicle: Klucel (hydroxypropylcellulose) (HPC)).

In the case of `Oc1ccc[n+](CCCCCC[n+]2cccc(O)c2)c1`, the T/C reads like this: (dose: 12.5 mg/kg/injection, schedule: Q01DX009 (ip), vehicle: water) 118 % of control; (dose: 25.0 mg/kg/injection, schedule: Q01DX009 (ip), vehicle: water) 105 % of control; (dose: 50.0 mg/kg/injection, schedule: Q01DX009 (ip), vehicle: water) 110 % of control; (dose: 100.0 mg/kg/injection, schedule: Q01DX009 (ip), vehicle: water) 112 % of control; (dose: 200.0 mg/kg/injection, schedule: Q01DX009 (ip), vehicle: water) 102 % of control; (dose: 400.0 mg/kg/injection, schedule: Q01DX009 (ip), vehicle: water) 102 % of control.

`CCC(CC)(C(=O)Nc1ccc2nc(C)cc(N)c2c1)C(=O)Nc1ccc2nc(C)cc(N)c2c1`: the T/C is 102 % of control (dose: 12.5 mg/kg/injection, schedule: Q01DX005 (ip), vehicle: saline with Tween-80); 90 % of control (dose: 25.0 mg/kg/injection, schedule: Q01DX005 (ip), vehicle: saline with Tween-80); 87 % of control and 93 % of control (dose: 50.0 mg/kg/injection, schedule: Q01DX005 (ip), vehicle: saline with Tween-80); 93 % of control (dose: 200.0 mg/kg/injection, schedule: Q01DX005 (ip), vehicle: saline with Tween-80).

On to `CC(C)CCCC(C)C1CCC2C3CCC4CC(OS(C)(=O)=O)CCC4(C)C3CCC12C` (stereo not drawn), for which the T/C is 96 % of control (dose: 50.0 mg/kg/injection, schedule: Q01DX009 (ip), vehicle: Klucel (hydroxypropylcellulose) (HPC)); 106 % of control (dose: 100.0 mg/kg/injection, schedule: Q01DX009 (ip), vehicle: Klucel (hydroxypropylcellulose) (HPC)); 103 % of control (dose: 200.0 mg/kg/injection, schedule: Q01DX009 (ip), vehicle: Klucel (hydroxypropylcellulose) (HPC)).

With `CN(C)[C@@H]1C(=O)C(C(N)=O)=C(O)[C@@]2(O)C(=O)C3=C(O)c4c(O)ccc(Cl)c4[C@@](C)(O)[C@H]3C[C@@H]12`, the T/C under setting [1] is 104 % of control and the T/C under setting [2] is 113 % of control.

For `CCc1c(C(=O)OC)c(C(=O)OC)c(-c2ccccc2)n1CCn1c(CC)c(C(=O)OC)c(C(=O)OC)c1-c1ccccc1`, the T/C is 96 % of control under setting [3], 91 % of control under setting [4] and 93 % of control under setting [5].

With `Cc1cc(N(CCO)CCO)c(OCc2ccccc2)c(N(CCO)CCO)c1`, the T/C reads like this: under setting [3], 99 % of control; under setting [4], 100 % of control; under setting [5], 98 % of control.

`CCOC(=O)CC(C(=O)OCC)C(=O)OCC`: the T/C is, setting by setting: (dose: 25.0 mg/kg/injection, schedule: Q01DX009 (ip), vehicle: saline) 97 % of control; (dose: 50.0 mg/kg/injection, schedule: Q01DX009 (ip), vehicle: saline) 100 % of control; (dose: 100.0 mg/kg/injection, schedule: Q01DX009 (ip), vehicle: saline) 103 % of control; (dose: 200.0 mg/kg/injection, schedule: Q01DX009 (ip), vehicle: saline) 106 % of control.

`COc1ccc(S(=O)(=O)N=N/C=C2\C=CC=CN2O)cc1OC`: the T/C is 104 % of control (dose: 1.56 mg/kg/injection, schedule: Q01DX009 (ip), vehicle: saline with Tween-80); 103 % of control (dose: 3.12 mg/kg/injection, schedule: Q01DX009 (ip), vehicle: saline with Tween-80); 103 % of control (dose: 6.25 mg/kg/injection, schedule: Q01DX009 (ip), vehicle: saline with Tween-80); 100 % of control and 103 % of control and 90 % of control (dose: 12.5 mg/kg/injection, schedule: Q01DX009 (ip), vehicle: saline with Tween-80); 100 % of control (dose: 25.0 mg/kg/injection, schedule: Q01DX001 (ip), vehicle: saline with Tween-80); 110 % of control and 114 % of control and 117 % of control (dose: 25.0 mg/kg/injection, schedule: Q01DX009 (ip), vehicle: saline with Tween-80). For the same compound, the T/C is 109 % of control (dose: 50.0 mg/kg/injection, schedule: Q01DX001 (ip), vehicle: saline with Tween-80); 119 % of control (dose: 50.0 mg/kg/injection, schedule: Q01DX009 (ip), vehicle: saline with Tween-80); 118 % of control (dose: 100.0 mg/kg/injection, schedule: Q01DX001 (ip), vehicle: saline with Tween-80).

With `O=C(Nc1cccc2ccccc12)OC1CC2CCC1C2Cl` (stereo not drawn), the T/C was 93 % of control (dose: 25.0 mg/kg/injection, schedule: Q01DX009 (ip), vehicle: other); 87 % of control (dose: 50.0 mg/kg/injection, schedule: Q01DX009 (ip), vehicle: other); 87 % of control (dose: 100.0 mg/kg/injection, schedule: Q01DX009 (ip), vehicle: other); 88 % of control (dose: 200.0 mg/kg/injection, schedule: Q01DX009 (ip), vehicle: other); 91 % of control (dose: 400.0 mg/kg/injection, schedule: Q01DX009 (ip), vehicle: other).

With `COc1ccc(C(Cc2ccccc2)C2(O)C(=O)NC(=O)NC2=O)cc1` (stereo not drawn), the T/C was 103 % of control (dose: 60.0 mg/kg/injection, schedule: Q01DX005 (ip), vehicle: saline with Tween-80); 99 % of control (dose: 120.0 mg/kg/injection, schedule: Q01DX005 (ip), vehicle: saline with Tween-80); 98 % of control (dose: 240.0 mg/kg/injection, schedule: Q01DX005 (ip), vehicle: saline with Tween-80).

As to `C/C(=N\OC(=O)c1ccccc1)c1ccccc1`, the T/C is 102 % of control under setting [1]; 102 % of control under setting [2]; 100 % of control (dose: 400.0 mg/kg/injection, schedule: Q04DX003 (ip), vehicle: saline).

In the case of `O=C(CC(=O)CC(O)(C(F)(F)F)C(F)(F)F)CC(O)(C(F)(F)F)C(F)(F)F`, the T/C is 100 % of control (dose: 1.25 mg/kg/injection, schedule: Q04DX003 (ip), vehicle: saline) and 95 % of control (dose: 2.5 mg/kg/injection, schedule: Q04DX003 (ip), vehicle: saline).

For the compound `CC[C@@]1(O)C[C@H](OC2CC(N(C)C)C(OC3CC(O)C(OC4CCC(=O)C(C)O4)C(C)O3)C(C)O2)c2c(cc3c(c2O)C(=O)c2c(O)ccc(O)c2C3=O)[C@H]1C(=O)OC` (stereo partly drawn), the T/C is 116 % of control (dose: 1.56 mg/kg/injection, schedule: Q04DX003 (ip), vehicle: saline); 154 % of control and 161 % of control (dose: 2.0 mg/kg/injection, schedule: Q04DX003 (ip), vehicle: saline with Tween-80); 160 % of control (dose: 2.59 mg/kg/injection, schedule: Q04DX003 (ip), vehicle: water); 152 % of control and 153 % of control and 160 % of control (dose: 4.32 mg/kg/injection, schedule: Q04DX003 (ip), vehicle: saline); 151 % of control and 169 % of control (dose: 4.32 mg/kg/injection, schedule: Q04DX003 (ip), vehicle: water); 164 % of control and 180 % of control (dose: 7.2 mg/kg/injection, schedule: Q04DX003 (ip), vehicle: saline). Besides, the T/C reads like this: (dose: 8.0 mg/kg/injection, schedule: Q04DX003 (ip), vehicle: saline with Tween-80) 94 % of control and 98 % of control; (dose: 12.0 mg/kg/injection, schedule: Q04DX003 (ip), vehicle: saline) 103 % of control; (dose: 12.0 mg/kg/injection, schedule: Q04DX003 (ip), vehicle: water) 92 % of control.

As for `CC1(C)C[C@H](OC2CCCCO2)[C@H]2O[C@@]2(C)C1` (stereo partly drawn), the T/C reads like this: (dose: 100.0 mg/kg/injection, schedule: Q04DX002 (ip), vehicle: saline) 103 % of control; (dose: 200.0 mg/kg/injection, schedule: Q04DX002 (ip), vehicle: saline) 102 % of control; (dose: 400.0 mg/kg/injection, schedule: Q04DX002 (ip), vehicle: saline) 96 % of control.
